Results published in patent publication US11096939B2, “KRAS G12C inhibitors and methods of using the same” (Amgen Inc., priority 2018, dated 2021).
Read-outs that look alike come from different tables or passages of the source.

How the values were obtained:
[1] = target: GDP-bound KRAS protein (aa 1-169), containing both G12C and C118A amino acid substitutions (Homo sapiens, UniProt P01116, C118A/G12C); experiment: Coupled nucleotide exchange assay (SOS-mediated, AlphaScreen); format: biochemical; details: compound pre-incubation either 5 min or 2 hours (not stated per value); SOS and GTP added, cRAF AlphaScreen readout
Sequence of GDP-bound KRAS protein (aa 1-169), containing both G12C and C118A amino acid substitutions (P01116 1-169 isoform P01116-2 G12C/C118A): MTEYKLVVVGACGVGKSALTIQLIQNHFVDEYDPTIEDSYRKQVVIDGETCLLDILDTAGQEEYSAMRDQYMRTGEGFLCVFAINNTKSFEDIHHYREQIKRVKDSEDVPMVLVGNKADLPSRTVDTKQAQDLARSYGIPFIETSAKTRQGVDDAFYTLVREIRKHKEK
Description: Coupled Nucleotide Exchange Assay:
Following compound pre-incubation, purified SOS protein (aa 564-1049) and GTP (Roche 10106399001) were added to the assay wells and incubated for an additional 30 min (for 5 min compound pre-incubation) or 1 hour (for 2 hour compound pre-incubation). To determine the extent of inhibition of SOS-mediated nucleotide exchange, purified GST-tagged cRAF (aa 1-149), nickel chelate AlphaLISA acceptor beads (PerkinElmer AL108R), and AlphaScreen glutathione donor beads (PerkinElmer 6765302) were added to the assay wells and incubated for 10 minutes. The assay plates were then read on a PerkinElmer EnVision Multilabel Reader, using AlphaScreen® technology, and data were analyzed using a 4-parameter logistic model to calculate IC50 values.

[2] = test system: Phosphorylation of ERK1/2 in MIA PaCa-2 cells; experiment: Phospho-ERK1/2 MSD assay; format: cell-based; details: compound 2 or 4 hours, 10 ng/mL EGF for 10 min, read-out: p-ERK IC50 (MIA-PaCa-2)
Description: Phospho-ERK1/2 MSD Assay:
MIA PaCa-2 (ATCC® CRL-1420™)-cells were cultured in RPMI 1640 Medium (ThermoFisher Scientific 11875093) containing 10% fetal bovine serum (ThermoFisher Scientific 16000044) and 1× penicillin-streptomycin-glutamine (ThermoFisher Scientific 10378016). Sixteen hours prior to compound treatment, MIA PaCa-2 cells were seeded in 96-well cell culture plates at a density of 25,000 cells/well and incubated at 37° C., 5% CO2. A compound dose-response titration was diluted in growth media, added to appropriate wells of a cell culture plate, and then incubated at 37° C., 5% CO2 for 2 or 4 hours. Following compound treatment, cells were stimulated with 10 ng/mL EGF (Roche 11376454001) for 10 min, washed with ice-cold Dulbecco's phosphate-buffered saline, no Ca^2+ or Mg^2+ (ThermoFisher Scientific 14190144), and then lysed in RIPA buffer (50 mM Tris-HC pH 7.5, 1% Igepal, 0.5% sodium deoxycholate, 150 mM NaCl, and 0.5% sodium dodecyl sulfate) containing protease inhibitors (Roche 4693132001) and phosphatase inhibitors (Roche 4906837001). Phosphorylation of ERK1/2 in compound-treated lysates was assayed using Phospho-ERK1/2 Whole Cell Lysate kits (Meso Scale Discovery KI51DWD) according to the manufacturer's protocol. Assay plates were read on a Meso Scale Discovery Sector Imager 6000, and data were analyzed using a 4-parameter logistic model to calculate IC50 values.

[3] = Homo sapiens, MIA PaCa-2, MIA PaCa-2 cells

Coupled Exchange IC50 [1] [µM]	IC50 [2, 3] [µM]	IC50 ([2]; MIA PaCa-2 cells) [µM]	Compound
8.04	1.76		C=CC(=O)N1C[C@H](C)N(C2=NC(=O)C3(CCc4ccccc43)c3nc(-c4ccccc4F)c(Cl)cc32)C[C@H]1C (stereo partly drawn) [Example 1-7, 5′-((2S,5R)-4-Acryloyl-2,5-dimethylpiperazin-1-yl)-3′-chloro-2′-(2-fluorophenyl)-2,3-dihdyro-7′H-spiro[indene-1,8′-[1,6]naphthyridin]-7′-one]
94.7			C=CC(=O)N1CCN(C2=NC(=O)C(C)(CC(C)C)c3nc(-c4ccccc4F)c(Cl)cc32)[C@@H](C)C1 (single isomer, unassigned) [Example 3-1-1]
0.55	0.35		C=CC(=O)N1C[C@H](C)N(C2=NC(=O)C(C)(C3CCC3)c3nc(-c4ccccc4F)c(Cl)cc32)C[C@H]1C (single isomer, unassigned) [Example 1-3-2]
2.68			C=CC(=O)N1C[C@H](C)N(C2=NC(=O)C(C)(C3CCCC3)c3nc(-c4ccccc4F)c(Cl)cc32)C[C@H]1C (mixture of isomers) [Example 1-1, 5-((2S,5R)-4-Acryloyl-2,5-dimethylpiperazin-1-yl)-3-chloro-8-cyclopentyl-2-(2-fluorophenyl)-8-methyl-1,6-naphthyridin-7(8H)-one]
250			C=CC(=O)N1C[C@H](C)N(C2=NC(=O)C(C)(C3CCCC3)c3nc(-c4ccccc4F)c(Cl)cc32)C[C@H]1C (single isomer, unassigned) [Example 1-1-1]
14.3			C=CC(=O)N1CCN(C2=NC(=O)C(C)(CC(C)C)c3nc(-c4ccccc4F)c(Cl)cc32)[C@@H](C)C1 (stereo partly drawn) [Example 3-1, 5-((S)-4-Acryloyl-2-methylpiperazin-1-yl)-3-chloro-2-(2-fluorophenyl)-8-isobutyl-8-methyl-1,6-naphthyridin-7(8H)-one]
1.43			C=CC(=O)N1C[C@H](C)N(C2=NC(=O)C(C)(C3CCCC3)c3nc(-c4ccccc4F)c(Cl)cc32)C[C@H]1C (single isomer, unassigned) [Example 1-1-2]
1.69	0.95		C=CC(=O)N1C[C@H](C)N(C2=NC(=O)C(C)(C3CCC3)c3nc(-c4ccccc4F)c(Cl)cc32)C[C@H]1C (stereo partly drawn) [Example 1-3, 5-((2S,5R)-4-Acryloyl-2,5-dimethylpiperazin-1-yl)-3-chloro-8-cyclobutyl-2-(2-fluorophenyl)-8-methyl-1,6-naphthyridin-7(8H)-one]
11.2	2.74		C=CC(=O)N1C[C@H](C)N(C2=NC(=O)C(C)(CC)c3nc(-c4ccccc4F)c(Cl)cc32)C[C@H]1C (single isomer, unassigned) [Example 1-4-1]
5.28		1.72	C=CC(=O)N1C[C@H](C)N(C2=NC(=O)C3(CCc4ccccc43)c3nc(-c4ccccc4F)c(Cl)cc32)C[C@H]1C (single isomer, unassigned) [Example 1-7-1]
4.95		1.62	C=CC(=O)N1C[C@H](C)N(C2=NC(=O)C(C)(CC(C)C)c3nc(-c4ccccc4F)c(Cl)cc32)C[C@H]1C (single isomer, unassigned) [Example 1-8-2]
>250			C=CC(=O)N1C[C@H](C)N(C2=NC(=O)C(C)(C3CC3)c3nc(-c4ccccc4F)c(Cl)cc32)C[C@H]1C (single isomer, unassigned) [Example 1-2-2]
186			C=CC(=O)N1C[C@H](C)N(C2=NC(=O)C(C)(c3ccccc3)c3nc(-c4ccccc4F)c(Cl)cc32)C[C@H]1C (single isomer, unassigned) [Example 1-5-1]
139			C=CC(=O)N1C[C@H](C)N(C2=NC(=O)C(C)(CC)c3nc(-c4ccccc4F)c(Cl)cc32)C[C@H]1C (single isomer, unassigned) [Example 1-4-2]
3.37	1.77		C=CC(=O)N1C[C@H](C)N(C2=NC(=O)C3(Cc4ccccc4C3)c3nc(-c4ccccc4F)c(Cl)cc32)C[C@H]1C [Example 2-2, 5′-((2S,5R)-4-acryloyl-2,5-dimethylpiperazin-1-yl)-3′-chloro-2′-(2-fluorophenyl)-1,3-dihydro-7′H-spiro[indene-2,8′-[1,6]naphthyridin]-7′-one]
19.3			C=CC(=O)N1C[C@H](C)N(C2=NC(=O)C(C)(CC)c3nc(-c4ccccc4F)c(Cl)cc32)C[C@H]1C (stereo partly drawn) [Example 1-4, 5-((2S,5R)-4-Acryloyl-2,5-dimethylpiperazin-1-yl)-3-chloro-8-ethyl-2-(2-fluorophenyl)-8-methyl-1,6-naphthyridin-7(8H)-one]
53.8			C=CC(=O)N1C[C@H](C)N(C2=NC(=O)C(C)(CC(C)C)c3nc(-c4ccccc4F)c(Cl)cc32)C[C@H]1C (single isomer, unassigned) [Example 1-8-1]
5.15		1.45	C=CC(=O)N1C[C@H](C)N(C2=NC(=O)C(C)(C3CC3)c3nc(-c4ccccc4F)c(Cl)cc32)C[C@H]1C (single isomer, unassigned) [Example 1-2-1]
5.78		3.69	C=CC(=O)N1C[C@H](C)N(C2=NC(=O)C(C)(CC(C)C)c3nc(-c4ccccc4F)c(Cl)cc32)C[C@H]1C (stereo partly drawn) [Example 1-8, 5-((2S,5R)-4-Acryloyl-2,5-dimethylpiperazin-1-yl)-3-chloro-2-(2-fluorophenyl)-8-isobutyl-8-methyl-1,6-naphthyridin-7(8H)-one]
14.9			C=CC(=O)N1C[C@H](C)N(C2=NC(=O)C(C)(c3ccccc3)c3nc(-c4ccccc4F)c(Cl)cc32)C[C@H]1C (single isomer, unassigned) [Example 1-5-2]
25.9			C=CC(=O)N1C[C@H](C)N(C2=NC(=O)C(C)(c3ccccc3)c3nc(-c4ccccc4F)c(Cl)cc32)C[C@H]1C (stereo partly drawn) [Example 1-5, 5-((2S,5R)-4-Acryloyl-2,5-dimethylpiperazin-1-yl)-3-chloro-2-(2-fluorophenyl)-8-methyl-8-phenyl-1,6-naphthyridin-7(8H)-one]
7.28	3.31		C=CC(=O)N1C[C@H](C)N(C2=NC(=O)C3(CCCCC3)c3nc(-c4ccccc4F)c(Cl)cc32)C[C@H]1C [Example 1-6, 5′-((2S,5R)-4-Acryloyl-2,5-dimethylpiperazin-1-yl)-3′-chloro-2′-(2-fluorophenyl)-7′H-spiro[cyclohexane-1,8′-[16,]naphthyridin]-7′-one]
13.3	1.77		C=CC(=O)N1CCN(C2=NC(=O)C(C)(CC(C)C)c3nc(-c4ccccc4F)c(Cl)cc32)[C@@H](C)C1 (single isomer, unassigned) [Example 3-1-2]
7.74		3.26	C=CC(=O)N1C[C@H](C)N(C2=NC(=O)C3(CCc4ccccc43)c3nc(-c4ccccc4F)c(Cl)cc32)C[C@H]1C (single isomer, unassigned) [Example 1-7-2]
201			C=CC(=O)N1C[C@H](C)N(C2=NC(=O)C(C)(C3CCC3)c3nc(-c4ccccc4F)c(Cl)cc32)C[C@H]1C (single isomer, unassigned) [Example 1-3-1]
20.1	1.63		C=CC(=O)N1C[C@H](C)N(C2=NC(=O)C(C)(C3CC3)c3nc(-c4ccccc4F)c(Cl)cc32)C[C@H]1C (stereo partly drawn) [Example 1-2, 5-((2S,5R)-4-Acryloyl-2,5-dimethylpiperazin-1-yl)-3-chloro-8-cyclopropyl-2-(2-fluorophenyl)-8-methyl-1,6-naphthyridin-7(8H)-one]
18.6			C=CC(=O)N1C[C@H](C)N(C2=NC(=O)C(C3CC3)(C3CC3)c3nc(-c4ccccc4F)c(Cl)cc32)C[C@H]1C [Example 2-1, 5-((2S,5R)-4-Acryloyl-2,5-dimethylpiperazin-1-yl)-3-chloro-8,8-dicyclopropyl-2-(2-fluorophenyl)-1,6-naphthyridin-7(8H)-one]
